Results as given in patent US20120134978A1, “Cross-Linking of Superoxide Dismutase Monomers” (Brandeis University, priority 2009, published 2012).
Entries after “also recorded” stand apart in the source; their conditions may differ.

Tests used:
wtSOD1 [1] = molecular target: T1, wtSOD1 (Homo sapiens, UniProt P00441); assay: Cross-linking and western blots (SDS-PAGE) of SOD1; type: biochemical; conditions: for SOD1 dimer formation by cross-linking (western blot): 1:1 or 1:3 molar ratio SOD1 to cross-linker, 1 hour, room temperature
T1 construct: purchased Sigma-Aldrich (St. Louis, Mo.)

G85R SOD1 [2] = molecular target: T2, G85R SOD1 (Homo sapiens, UniProt P00441, G86R); assay: SOD1 activity assay (NBT gel based); type: biochemical; conditions: ~42 μM G85R; for SOD1 activity on addition of the substance: excess copper, zinc or cross-linker
T2 construct: made in house; host or cells: S. cerevisiae EGy118ΔSOD1, vector YEp-351
Procedure: (§1) The DTME cross-linked samples were divided in half, where one half was incubated with 10 mM TCEP and one was not, then analyzed on a 12.5% polyacrylamide gel. The gel was stained using a solution containing 50 mM potassium phosphate, pH 7.8, 1 tablet NBT (10 mg/tablet), and 0.1 mg/mL riboflavin for 45 minutes in the dark. After the 45 minute incubation 1 μL/mL TEMED was added and the gel was exposed to light for 2 minutes. Superoxide radicals create insoluble blue formazon from NBT. SOD1 acitivity is seen as a colorless band since SOD1 scavenges the superoxide, thus inhibiting the blue color formation. Repeated in triplicate.

wtSOD1 [3] = molecular target: T1, wtSOD1; assay: SOD1 activity assay (NBT gel based); type: biochemical; conditions: ~42 μM SOD1, 80 μM copper and zinc and/or 42 μM cross-linker
Procedure: as §1

G93A SOD1 [4] = molecular target: T3, G93A SOD1 (Homo sapiens, UniProt P00441, G94A); assay: SOD1 activity assay (NBT gel based); type: biochemical; conditions: ~42 μM SOD1, 80 μM copper and zinc and/or 42 μM cross-linker
T3 construct: made in house; host or cells: S. cerevisiae EGy118ΔSOD1, vector YEp-351
Procedure: as §1

G93A SOD1 [5] = molecular target: T3, G93A SOD1; assay: LC-FTMS of cross-linked SOD1 (stoichiometry of cross-linker binding); conditions: 1:1 molar ratio
Procedure: G93A was cross-linked using DMTE or BMOE as previously described at a 1:1 molar ratio (5 μM:5 μM). After one hour, 3% acetonitrile and 1% formic acid was added to the sample and spun at 14,000 RPM for 10 minutes to pellet any precipitated protein. The cross-linked sample was placed in an autosampler and 1 μL of cross-linked sample was aspirated into either a Proxeon 1D HPLC or Eksigent 2D HPLC with the following gradient: 3-50% B for 30 minutes, 50-95% B for 7 minutes, 95% B for 5 minutes, 95-3% B for 1 minute, and 3% B for 15 minutes. Buffer A is HPLC water with 0.1% formic acid and buffer B is 100% acetonitrile, 0.1% formic acid. After liquid chromatography, the sample was ionized using nanospray ionization and analyzed using a […] Bruker Daltonics FTMS. The FTMS was controlled using Apex control software and source parameters were controlled using the Apollo II software. Spectra (monomeric and dimeric G93A) were collected using a skimmer 1 voltage of 35-40V, whereas funnel skimmer dissociation was used to fragment the cross-linked G93A by increasing skimmer one voltage 140 volts. LC-FTMS data of cross-linked and non-cross-linked G93A were analyzed using Data Analysis software (Bruker Daltonics). These experiments were repeated in triplicate. […]

G85R SOD1 [6] = molecular target: T2, G85R SOD1; assay: Peptide sequencing using LC-FTMS (bottom-up analysis, site of cross-linking); type: binding; conditions: 1:1 molar ratio, Glu-C digest
wtSOD1 [7] = molecular target: T1, wtSOD1; assay: MALDI-TOF MS of cross-linked SOD1; type: biochemical; conditions: 1:1 molar ratio
human = conditions: LD50 values in human; cited from earlier work
G85R SOD1 [8] = molecular target: T2, G85R SOD1; assay: Thermofluorescence stability assay (SYPRO Orange); type: binding; conditions: 10 μM G85R, 20 μM copper, 20 μM zinc
G93A SOD1 [9] = molecular target: T3, G93A SOD1; assay: Thermofluorescence stability assay (SYPRO Orange); type: binding; conditions: 10 μM G93A, 20 μM copper, 20 μM zinc

T3 sequence (P00441 2-154 G94A limits assumed): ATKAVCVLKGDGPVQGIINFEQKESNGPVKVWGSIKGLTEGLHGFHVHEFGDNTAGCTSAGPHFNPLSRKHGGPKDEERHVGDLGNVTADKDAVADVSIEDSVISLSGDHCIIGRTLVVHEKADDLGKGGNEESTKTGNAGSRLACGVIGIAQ
T2 sequence (P00441 2-154 G86R limits assumed): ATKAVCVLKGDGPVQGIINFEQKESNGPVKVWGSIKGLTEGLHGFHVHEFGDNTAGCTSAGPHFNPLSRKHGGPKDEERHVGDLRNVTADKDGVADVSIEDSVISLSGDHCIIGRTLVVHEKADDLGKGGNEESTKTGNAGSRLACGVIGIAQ
T1 sequence (P00441 2-154 limits assumed): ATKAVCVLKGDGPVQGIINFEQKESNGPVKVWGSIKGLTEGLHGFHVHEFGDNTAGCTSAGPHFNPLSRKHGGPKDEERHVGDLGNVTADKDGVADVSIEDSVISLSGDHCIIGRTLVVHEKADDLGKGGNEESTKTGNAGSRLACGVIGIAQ

## O=C1C=CC(=O)N1CCOCCOCCN1C(=O)C=CC1=O [BM(PEG)2, 1,8-bis-Maleimidodiethyleneglycol]
wtSOD1 [1]
  SOD1 dimer formation by cross-linking (western blot): resulted in the stabilization of SOD1 dimer

## O=C1C=CC(=O)N1CCCCN1C(=O)C=CC1=O [BMB, 1,4bismaleimidobutane]
wtSOD1 [1]
  SOD1 dimer formation by cross-linking (western blot): resulted in the stabilization of SOD1 dimer

## O=C1C=CC(=O)N1CC(O)C(O)CN1C(=O)C=CC1=O (stereo not shown) [BMDB, 1,4-bismaleimidyl-2,3-dihydroxybutane]
wtSOD1 [1]
  SOD1 dimer formation by cross-linking (western blot): resulted in the stabilization of SOD1 dimer

## O=C1C=CC(=O)N1CCN1C(=O)C=CC1=O [BMOE, bis(maleimido)ethane]
G85R SOD1 [2]
  SOD1 activity on addition of the substance: increases
wtSOD1 [3]
  SOD1 activity on addition of the substance: unchanged
G93A SOD1 [4]
  SOD1 activity on addition of the substance: unaffected
G93A SOD1 [5]
  stoichiometry of cross-linker binding: consistent with the molecular weight of G93A plus one cross-linker
G85R SOD1 [6]
  cross-reactivity with other SOD1 cysteine residues Cys6, Cys57 and Cys146: relatively low
  site of cross-linking: mainly through Cys111

## O=C1C=CC(=O)N1CCSSCCN1C(=O)C=CC1=O [DTME, Dithio-bismaleimidoethane]
G85R SOD1 [2]; 80 μM copper and zinc and 42 μM cross-linker
  SOD1 activity in the presence of copper, zinc and cross-linker: even larger increase in activity; also recorded: largest increase in activity
G85R SOD1 [2]
  SOD1 activity on addition of the substance: increases
G93A SOD1 [5]
  stoichiometry of cross-linker binding: one equivalent of cross-linker produced one equivalent of dimer; also recorded: consistent with the molecular weight of G93A plus one cross-linker
wtSOD1 [1]; 1:1 molar ratio, SDS PAGE with reducing agent
  state of cross-linked SOD1 dimer in presence of reducing agent (DTT): only monomer was observed; also recorded: returning the dimer to its monomeric form; also recorded: became a monomer in the presence of reducing agent
wtSOD1 [1]
  SOD1 dimer formation by cross-linking (western blot): resulted in the stabilization of SOD1 dimer; also recorded: resulted in dimeric SOD1
wtSOD1 [7]
  dimer observed in MALDI-TOF spectra of cross-linked SOD1: The majority of the species observed is dimeric wtSOD1

## C=CS(=O)(=O)CCCCCCS(=O)(=O)C=C [HBVS, 1,6-Hexanol-bis-vinylsulfone]
wtSOD1 [1]
  SOD1 dimer formation by cross-linking (western blot): did not result in formation of dimeric SOD1; also recorded: did not appear to cross-link SOD1

## O=C(CI)NCCNC(=O)CI [N,N′-ethylenebis-(iodoacetamide)]
human
  LD50: 9 mg/kg

## O=C1C=CC(=O)N1CCN(CCN1C(=O)C=CC1=O)CCN1C(=O)C=CC1=O [TMEA, Tris[2-maleimidoethyl]-amione]
wtSOD1 [1]; 1:1 or 1:3 cross-linker to protein
  relative cross-linking efficiency (western blot): most efficient cross-linker
wtSOD1 [1]
  SOD1 dimer formation by cross-linking (western blot): resulted in the stabilization of SOD1 dimer

## NNc1ccccc1 [phenylhydrazine]
human
  LD50: 80 mg/kg

## copper and zinc
G85R SOD1 [2]
  SOD1 activity on addition of the substance: increases
wtSOD1 [3]; zinc
  SOD1 activity on addition of the substance: unaffected; also recorded: unchanged
G93A SOD1 [4]
  SOD1 activity on addition of the substance: unaffected
G85R SOD1 [8]
  stabilization by excess copper and zinc alone: ~20 °C
G93A SOD1 [9]
  effect of excess copper and zinc on stability: no affect; also recorded: little effect
